According to patent publication US7750020B2, “Sulfonamide-thiazolpyridine derivatives as glucokinase activators useful the treatment of Type 2 diabetes” (Novartis AG, priority 2004, dated 2010):

Columns and labels:
recombinant GST-GK = target: T1, recombinant GST-GK (Homo sapiens, UniProt P35557); experiment: in vitro assay measuring the activation of recombinant GST-GK; assay type: biochemical
T1 sequence (P35557 1-465): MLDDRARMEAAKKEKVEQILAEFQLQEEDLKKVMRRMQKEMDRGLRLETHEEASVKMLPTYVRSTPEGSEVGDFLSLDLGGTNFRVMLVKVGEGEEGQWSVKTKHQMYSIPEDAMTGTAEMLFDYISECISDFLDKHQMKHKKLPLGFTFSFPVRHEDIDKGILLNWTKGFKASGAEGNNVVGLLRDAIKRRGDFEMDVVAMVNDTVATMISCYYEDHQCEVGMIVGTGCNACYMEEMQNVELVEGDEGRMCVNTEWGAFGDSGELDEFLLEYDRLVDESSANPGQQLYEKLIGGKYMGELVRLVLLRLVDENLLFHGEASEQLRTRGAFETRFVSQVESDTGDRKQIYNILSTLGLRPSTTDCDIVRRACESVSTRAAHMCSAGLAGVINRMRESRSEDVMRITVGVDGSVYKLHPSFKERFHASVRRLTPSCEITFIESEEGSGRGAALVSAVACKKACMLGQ
Description: The glucokinase activation in vitro may be determined by measuring the activation of recombinant GST-GK by a compound of the present invention in the absence or the presence of GKRP, a 68,000 Da protein inhibitor of GK. In these assays, formation of glucose-6-phosphate is coupled directly to the formation of thioNADH. GST-GK catalyzes the reaction of glucose and Mg-ATP to produce glucose-6-phosphate and ADP. Glucose-6-phosphate dehydrogenase (G6PDH) reduces thionicotinamide (thioNAD) to thioNADH. The assay measures the formation of […] at 405 nM.
The basic GK assay components are as follows: 25 mM HEPES (pH 7.1), 25 mM KCl, 2.5 mM MgCl2, 1 mM ATP (Sigma A-5394), 1 mM DTT, 1 mM thioNAD (Sigma T-7375), 80 units/mL G6PDH (Sigma G-5885), 10 mM glucose and […] GST-GK (110 nM). For assessing reversal of GK inhibition by GKRP, 20 μM Fructose-1-phosphate ([…]) and 25 μg/mL of recombinant GKRP (370 nM) are added to these assay components. F-1-P at 1 μM is used as a control in the GK/GKRP assay. F-1-P reverses inhibition of GST-GK by GKRP.
The assay is done in standard, 96-well, round-bottom plates and the total assay volume is 25 μL. […] The plates are then delivered via the Zymark XP arm to a Thermomax plate reader and read kinetically over three min at 405 nM at RT. Units are expressed as milli-optical density per minute (mOD/min).

Compound	EC50 (recombinant GST-GK) [nM]	melting point [°C]
COc1ccc2nc(NC(=O)C(CC3CCCC3)c3ccc(S(=O)(=O)N4CCN(C)CC4)cc3)sc2n1 (stereo not shown) [Example 1, 3-Cyclopentyl-N-(5-methoxy-thiazolo[5,4-b]pyridin-2-yl)-2-[4-(4-methyl-piperazine-1-sulfonyl)-phenyl]-propionamide]	~251	–
COCCNS(=O)(=O)c1ccc(C(CC2CCCC2)C(=O)Nc2nc3ccc(OC)nc3s2)cc1 (stereo not shown) [Example 5, 3-Cyclopentyl-2-[4-(2-methoxy-ethylsulfamoyl)-phenyl]-N-(5-methoxy-thiazolo[5,4-b]pyridin-2-yl)-propionamide]	–	209 to 211
COc1ccc2nc(NC(=O)C(CC3CCCC3)c3ccc(S(=O)(=O)N(C(C)C)C(C)C)cc3)sc2n1 (stereo not shown) [Example 9, 3-Cyclopentyl-2-(4-diisopropylsulfamoyl-phenyl)-N-(5-methoxy-thiazolo[5,4-b]pyridin-2-yl)-propionamide]	–	83 to 85
CCCN(c1ccccc1)S(=O)(=O)c1ccc(C(CC2CCCC2)C(=O)Nc2nc3ccc(OC)nc3s2)cc1 (stereo not shown) [Example 11, 3-Cyclopentyl-N-(5-methoxy-thiazolo[5,4-b]pyridin-2-yl)-2-[4-(phenyl-propyl-sulfamoyl)-phenyl]-propionamide]	–	83 to 85
COc1ccc2nc(NC(=O)C(CC3CCCC3)c3ccc(S(=O)(=O)NCc4cccnc4)cc3)sc2n1 (stereo not shown) [Example 15, 3-Cyclopentyl-N-(5-methoxy-thiazolo[5,4-b]pyridin-2-yl)-2-{4-[(pyridin-3-ylmethyl)-sulfamoyl]-phenyl}-propionamide]	–	227 to 229
COc1ccc2nc(NC(=O)C(CC3CCCC3)c3ccc(S(=O)(=O)N4CCOCC4)cc3)sc2n1 (stereo not shown) [Example 18, 3-Cyclopentyl-N-(5-methoxy-thiazolo[5,4-b]pyridin-2-yl)-2-[4-(morpholine-4-sulfonyl)-phenyl]-propionamide]	–	120 to 123
COc1ccc2nc(NC(=O)C(CC3CCCC3)c3ccc(S(=O)(=O)NCc4cccs4)cc3)sc2n1 (stereo not shown) [Example 19, 3-Cyclopentyl-N-(5-methoxy-thiazolo[5,4-b]pyridin-2-yl)-2-{4-[(thiophen-2-ylmethyl)-sulfamoyl]-phenyl}-propionamide]	–	263 to 268
COc1ccc2nc(NC(=O)C(CC3CCCC3)c3ccc(S(=O)(=O)Nc4cccnc4)cc3)sc2n1 (stereo not shown) [Example 20, 3-Cyclopentyl-N-(5-methoxy-thiazolo[5,4-b]pyridin-2-yl)-2-[4-(pyridin-3-ylsulfamoyl)-phenyl]-propionamide]	–	125 to 127
COc1ccc2nc(NC(=O)C(CC3CCCC3)c3ccc(S(=O)(=O)NCc4ccccc4)cc3)sc2n1 (stereo not shown) [Example 23, 2-(4-Benzylsulfamoyl-phenyl)-3-cyclopentyl-N-(5-methoxy-thiazolo[5,4-b]pyridin-2-yl)-propionamide]	–	237 to 240
CCN1CCN(S(=O)(=O)c2ccc(C(CC3CCCC3)C(=O)Nc3nc4ccc(OC)nc4s3)cc2)CC1 (stereo not shown) [Example 26, 3-Cyclopentyl-2-[4-(4-ethyl-piperazine-1-sulfonyl)-phenyl]-N-(5-methoxy-thiazolo[5,4-b]pyridin-2-yl)-propionamide]	–	106 to 110
COc1ccc2nc(NC(=O)C(CC3CCCC3)c3ccc(S(=O)(=O)N4CCN(C(C)=O)CC4)cc3)sc2n1 (stereo not shown) [Example 27, 2-[4-(4-Acetyl-piperazine-1-sulfonyl)-phenyl]-3-cyclopentyl-N-(5-methoxy-thiazolo[5,4-b]pyridin-2-yl)-propionamide]	–	215 to 217

The remaining lines, values ahead:

EC50 (recombinant GST-GK) [nM]	melting point [°C]	Compound
–	235 to 237	COc1ccc2nc(NC(=O)C(CC3CCCC3)c3ccc(S(=O)(=O)NC4CC4)cc3)sc2n1 (stereo not shown) [Example 4, 3-Cyclopentyl-2-(4-cyclopropylsulfamoyl-phenyl)-N-(5-methoxy-thiazolo[5,4-b]pyridin-2-yl)-propionamide]
–	179 to 181	COc1cccc(CNS(=O)(=O)c2ccc(C(CC3CCCC3)C(=O)Nc3nc4ccc(OC)nc4s3)cc2)c1 (stereo not shown) [Example 6, 3-Cyclopentyl-2-[4-(3-methoxy-benzylsulfamoyl)-phenyl]-N-(5-methoxy-thiazolo[5,4-b]pyridin-2-yl)-propionamide]
–	223 to 226	COc1ccc2nc(NC(=O)C(CC3CCCC3)c3ccc(S(=O)(=O)Nc4ccccc4)cc3)sc2n1 (stereo not shown) [Example 7, 3-Cyclopentyl-N-(5-methoxy-thiazolo[5,4-b]pyridin-2-yl)-2-(4-phenylsulfamoyl-phenyl)-propionamide]
–	244 to 247	COc1ccc2nc(NC(=O)C(CC3CCCC3)c3ccc(S(=O)(=O)NCc4ccco4)cc3)sc2n1 (stereo not shown) [Example 10, 3-Cyclopentyl-2-{4-[(furan-2-ylmethyl)-sulfamoyl]-phenyl}-N-(5-methoxy-thiazolo[5,4-b]pyridin-2-yl)-propionamide]
–	229 to 234	COc1ccc2nc(NC(=O)C(CC3CCCC3)c3ccc(S(=O)(=O)N(C)C)cc3)sc2n1 (stereo not shown) [Example 12, 3-Cyclopentyl-2-(4-dimethylsulfamoyl-phenyl)-N-(5-methoxy-thiazolo[5,4-b]pyridin-2-yl)-propionamide]
–	150 to 152	CCN(CC)S(=O)(=O)c1ccc(C(CC2CCCC2)C(=O)Nc2nc3ccc(OC)nc3s2)cc1 (stereo not shown) [Example 13, 3-Cyclopentyl-2-(4-diethylsulfamoyl-phenyl)-N-(5-methoxy-thiazolo[5,4-b]pyridin-2-yl)-propionamide]
–	64 to 66	CCCN(CCC)S(=O)(=O)c1ccc(C(CC2CCCC2)C(=O)Nc2nc3ccc(OC)nc3s2)cc1 (stereo not shown) [Example 14, 3-Cyclopentyl-2-(4-dipropylsulfamoyl-phenyl)-N-(5-methoxy-thiazolo[5,4-b]pyridin-2-yl)-propionamide]
–	184 to 218	COc1ccc2nc(NC(=O)C(CC3CCCC3)c3ccc(S(=O)(=O)N4CCCCC4)cc3)sc2n1 (stereo not shown) [Example 17, 3-Cyclopentyl-N-(5-methoxy-thiazolo[5,4-b]pyridin-2-yl)-2-[4-(piperidine-1-sulfonyl)-phenyl]-propionamide]
–	238 to 240	COc1ccc2nc(NC(=O)C(CC3CCCC3)c3ccc(S(=O)(=O)NCc4ccccc4F)cc3)sc2n1 (stereo not shown) [Example 21, 3-Cyclopentyl-2-[4-(2-fluoro-benzylsulfamoyl)-phenyl]-N-(5-methoxy-thiazolo[5,4-b]pyridin-2-yl)-propionamide]
–	206 to 208	COc1ccc2nc(NC(=O)C(CC3CCCC3)c3ccc(S(=O)(=O)N(C)Cc4ccccc4)cc3)sc2n1 (stereo not shown) [Example 24, 2-[4-(Benzyl-methyl-sulfamoyl)-phenyl]-3-cyclopentyl-N-(5-methoxy-thiazolo[5,4-b]pyridin-2-yl)-propionamide]
–	65 to 67	CCCCN(CCCC)S(=O)(=O)c1ccc(C(CC2CCCC2)C(=O)Nc2nc3ccc(OC)nc3s2)cc1 (stereo not shown) [Example 25, 3-Cyclopentyl-2-(4-dibutylsulfamoyl-phenyl)-N-(5-methoxy-thiazolo[5,4-b]pyridin-2-yl)-propionamide]
